Assay [1] deals with T1, recombinant DltA from E. faecalis (Enterococcus faecalis, UniProt Q830N0).
T1 construct: made in house; host or cells: E. coli
T1 sequence (Q830N0 1-506): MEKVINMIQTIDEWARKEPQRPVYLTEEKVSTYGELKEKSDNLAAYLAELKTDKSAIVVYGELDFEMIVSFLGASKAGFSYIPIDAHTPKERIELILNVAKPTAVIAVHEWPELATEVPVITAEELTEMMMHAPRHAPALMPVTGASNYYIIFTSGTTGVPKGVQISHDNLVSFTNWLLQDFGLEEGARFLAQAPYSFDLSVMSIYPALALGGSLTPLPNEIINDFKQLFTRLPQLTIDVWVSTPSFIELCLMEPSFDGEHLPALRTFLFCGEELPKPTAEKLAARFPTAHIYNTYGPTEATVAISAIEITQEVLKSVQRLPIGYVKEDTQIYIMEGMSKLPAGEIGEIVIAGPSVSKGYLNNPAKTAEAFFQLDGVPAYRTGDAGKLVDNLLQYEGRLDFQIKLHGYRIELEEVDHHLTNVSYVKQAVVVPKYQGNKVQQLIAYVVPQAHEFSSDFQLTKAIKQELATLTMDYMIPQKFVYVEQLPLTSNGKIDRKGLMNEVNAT
The experiment in a line: DltA enzyme inhibition, PPi release coupled-enzyme assay. The class given is biochemical. Here is the method: (§1) All new compounds were then evaluated in vitro for enzyme inhibition against recombinant DltA from E. faecalis or S. epidermis. Half-maximal inhibitory concentrations (IC50) were then determined by measuring the amount of PPi released at different inhibitor concentrations (Table 2). […] We noticed the DltA enzyme tolerated the presence of various modifications on the 2′-position, but the activity was inversely related to the size of the introduced group. […] Despite a good predicted binding affinity (−8.7 Kcal/mol), we hypothesize that the lower activity could be explained by the fact that the squaramide nitrogen atom might not be under its anionic form, as is the case with sulfamate 1.
(§2) The DltA-catalyzed ATP-hydrolysis reaction was monitored in vitro via PPi release (DltA +D-alanine +ATP → DltA-DAla-AMP +PPi) using a coupled-enzyme assay. The purified DltA was pretreated with DltC purified from E. coli to clear D-Ala-AMP already present in the enzyme preparation after expression in E. coli. Holo-DltC is the natural protein partner of DltA, and DltC purified from E. coli BL21 (DE3) contained 51% of this active form of DltC as determined by HPLC analysis. DltA was pretreated with DltC (ratio 1:1.2), incubated for 30 min at 37 °C and 30 min at 4 °C. Three successive washes were realized on Amicon Ultra-2 Centrifugal Filter Unit—Ultracel 30 membrane 30 kDa MWCO (Merck, Darmstadt, Germany) with elution buffer EB at 4 °C. The components of the coupled enzyme assay included 1.5 μM pre-treated DltA, 20 μM of ATP, and 14 μM of D-alanine. The half-maximal inhibitory concentration (IC50) of potential DltA inhibitors was determined by the addition of different concentrations of the synthesized molecules. PPi release was determined using the PiPer—Pyrophosphate assay kit (Invitrogen, Waltham, MA, USA) according to the recommendation of the supplier. Reactions were carried out in 96-well Chimney Style, non-binding Microplates with μClear Film Bottom (Greiner Bio-one, Frickenhausen, Germany). Plates were incubated at 37 °C for 5 h and read in a FlexStation 3 Multi-Mode plate reader (Molecular Devices, Silicon Valley, CA, USA), with λ excitation of 530 nm and λ emission of 590 nm. Experiments were conducted in sextuplicate, and the IC50 was determined by linear regression of the curve.

Assay [2] relates to MRSA clinical isolates. The experiment in a line: MIC of imipenem against MRSA in absence or presence of DltA inhibitor. To be noted: for MIC: Staphylococcus aureus, MRSA. The class given is cell-based, S. aureus. The protocol: (§3) All these compounds were also tested […] against MRSA clinical isolates. […] The minimum inhibitory concentrations (MICs) of imipenem (IPM) were next determined in the absence or presence of 1 mM of the different DltA inhibitors to evaluate their potential to re-sensitize MRSA to this β-lactam (Table 2). […] To clarify this hypothesis, quantification of D-alanyl ester of the MRSA cell wall was performed as previously described in the presence of inhibitors (Table 2). […] These new series represent a promising structure entry not reported yet for the inhibition of DltA and the re-sensitization of bacteria toward known antibiotics.
Colonies from BHI agar plates were suspended in saline solution (0.9% NaCl) and adjusted to an OD600 of 0.5. For growth kinetics determination, 96-well microplates (Starlab, Orsay, France) containing 200 μL of fresh BHI medium were inoculated with bacterial suspensions to an OD600 of 0.02 with a wide range of DltA inhibitors (from 0 to 2 mM). Plates were incubated at 37 °C with shaking (orbital amplitude of 3 mm) in a microplate reader (InfiniteM Nano, Tecan, Seoul, Republic of Korean). OD600nm was measured every 10 min for 24 h. Determination of MIC/MBC of antibiotics and bacterial survival assays were performed as previously described using BHI medium. The DltA inhibitor was diluted in pure water and added to the growth medium to a final concentration of 0, 0.1, 0.25, 0.5, 0.75, or 1 mM.

For assay [3], the system named is D-alanyl ester of the MRSA cell wall. The experiment in a line: Quantification of D-alanyl ester in the bacterial cell wall. The class given is cell-based, S. aureus. To be noted: inhibitor at 1 mM, value (spread). Here is the method: as §3
Ester-linked D-alanines were quantified as described previously, with the following modifications. Cultures were grown in 5 mL of BHI supplemented with DltA inhibitor to a final concentration of 0.05, 0.1, 0.25, 0.5, 0.75, or 1 mM for 16 h at 37 °C under shaking (120 rpm). Briefly, the quantification is based on the oxidation of a chromogen by H2O2 generated when free D-alanines are oxidized by a D-amino acid oxidase. Three independent experiments with duplicate samples were performed.

Assay [4] concerns the target T2, recombinant DltA from S. epidermidis (Staphylococcus epidermidis, UniProt Q5HQN0).
T2 construct: made in house; host or cells: E. coli
T2 sequence (Q5HQN0 1-485): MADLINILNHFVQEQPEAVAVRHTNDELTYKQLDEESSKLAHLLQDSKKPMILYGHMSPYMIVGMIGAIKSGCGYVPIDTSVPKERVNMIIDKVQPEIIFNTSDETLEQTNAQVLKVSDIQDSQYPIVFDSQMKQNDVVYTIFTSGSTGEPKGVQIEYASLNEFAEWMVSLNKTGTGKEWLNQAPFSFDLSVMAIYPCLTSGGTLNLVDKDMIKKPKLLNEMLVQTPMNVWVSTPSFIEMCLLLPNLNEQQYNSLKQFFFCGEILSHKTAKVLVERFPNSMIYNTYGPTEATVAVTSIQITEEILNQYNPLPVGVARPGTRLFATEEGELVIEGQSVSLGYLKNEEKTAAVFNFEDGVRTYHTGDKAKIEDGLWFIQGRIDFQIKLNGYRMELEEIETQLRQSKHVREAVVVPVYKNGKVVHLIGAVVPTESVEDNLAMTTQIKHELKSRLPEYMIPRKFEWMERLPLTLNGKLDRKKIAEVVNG
As to the kind of experiment: DltA enzyme inhibition, PPi release coupled-enzyme assay. The class given is biochemical. Here is the method:
as §1, §2

Setting [5] is: S. aureus (MRSA), in presence of 1 mM of the DltA inhibitor, read-out: MIC of IPM.
Setting [6] is: S. aureus (MRSA), in presence of 1 mM of the DltA inhibitor.

Data on ten compounds can be found in publication PMC12196251, “Synthesis of New DltA Inhibitors and Their Application as Adjuvant Antibiotics to Re-Sensitize Methicillin-Resistant Staphylococcus aureus” (Molecules, 2025).

The structures appear in SMILES notation. pIC50: −log10 of the molar value. Several values for one entry are separate records, joined by “and”; a condition that tells them apart may be missing. Equal values may be shown once. Where a name gives a salt, the structure may show the parent alone. Read-outs that look alike come from different tables or passages of the source.

Usually pIC50 stands for −log10 of the IC50, conventionally taken in molar units. As a reminder, the MIC is the least concentration at which growth counts as inhibited.

`CC(N)C(=O)NS(=O)(=O)NCC1OC(n2cnc3c(N)ncnc32)C(F)C1O` [Compound 31, (R)-2-amino-N-(N-(((2R,3R,4R,5R)-5-(6-amino-9H-purin-9-yl)-4-fluoro-3-hydroxytetrahydrofuran-2-yl)methyl)sulfamoyl)propenamide salt]: the pIC50 in assay [1] was 5.49. Besides, in assay [2] (setting [5]), the MIC stood at 32 µg/mL. Also, the “Reduction in D-Ala Ester Residues” value in assay [3] is listed as 0%.
Turning to `CC(C)OP(=O)(OC(C)C)C(F)(F)/C=C/CO[C@@H]1[C@H](O)[C@@H](COS(=O)(=O)NC(=O)[C@@H](C)N)O[C@H]1n1cnc2c(N)ncnc21` [Compound 18, ((2R,3R,4R,5R)-5-(6-amino-9H-purin-9-yl)-4-(((E)-4-(diisopropoxyphosphoryl)-4,4-difluorobut-2-en-1-yl)oxy)-3-hydroxytetrahydrofuran-2-yl)methyl (D-alanyl)sulfamate salt], in assay [4], the pIC50 is 5.12. Besides, the MIC in assay [2] (read-out: MIC of IPM, S. aureus (MRSA), in presence of 1 mM of the DltA inhibitor) is 0.25 µg/mL. Moreover, the “Reduction in D-Ala Ester Residues” value in assay [3] was 51.5% and 51.5 (14.2) %.
`C[C@@H](N)C(=O)Nc1c(NC[C@H]2O[C@@H](n3cnc4c(N)ncnc43)[C@H](O)[C@@H]2O)c(=O)c1=O` [Compound 23, 5′-N-(N-D-alanyl]-(3-amino-cyclobut-3-ene-1,2-dione))aminodeoxy adenosine salt]: the pIC50 in assay [1] is 4.55. Further, the “Reduction in D-Ala Ester Residues” value in assay [3] is listed as 11.5 (1.3) %.
For the compound `C[C@@H](O)[C@H]1C(=O)N2C(C(=O)O)=C(SCCN=CN)C[C@H]12` [IPM, imipenem, reference compound], the MIC in assay [2] (tested MRSA strain, no inhibitor, read-out: MIC of IPM in the absence of an inhibitor) came out at 32 µg/mL.
For `C[C@@H](NC(=O)OCc1ccc([N+](=O)[O-])cc1)C(=O)c1cn(C[C@H]2O[C@@H](n3cnc4c(N)ncnc43)[C@H](O)[C@@H]2O)nn1` [Compound 54, 4-nitrobenzyl ((R)-1-(1-(((2R,3S,4R,5R)-5-(6-amino-9H-purin-9-yl)-3,4-dihydroxytetrahydrofuran-2-yl)methyl)-1H-1,2,3-triazol-4-yl)-1-oxopropan-2-yl)carbamate salt], the pIC50 in assay [4] is 4.66. Moreover, the “MIC of IPM” value in assay [2] (setting [6]) amounted to 16 µg/mL. For the same compound, the minimum inhibitory concentration (MIC) in assay [2] (setting [5]) was in the range of 16 to 64 µg/mL. For the same compound, in assay [3], the “Reduction in D-Ala Ester Residues” value was 0%.
The like results for `C[C@@H](N)C(=O)NS(=O)(=O)OC[C@H]1O[C@@H](n2cnc3c(N)ncnc32)[C@H](n2cc(CO[C@@H]3O[C@H](CO)[C@@H](O)[C@H](O)[C@H]3O)nn2)[C@@H]1O` [Compound 11, ((2R,3S,4R,5R)-5-(6-amino-9H-purin-9-yl)-3-hydroxy-4-(4-((((2R,3R,4S,5S,6R)-3,4,5-trihydroxy-6-(hydroxymethyl)tetrahydro-2H-pyran-2-yl)oxy)methyl)-1H-1,2,3-triazol-1-yl)tetrahydrofuran-2-yl)methyl (D-alanyl)sulfamate salt] were, in that order, 4.40, 32 µg/mL, 16 to 64 µg/mL and 0%.
With `C[C@@H](N)C(=O)NS(=O)(=O)NC/C(CF)=C(\F)Cn1cnc2c(N)ncnc21` [Compound 38, (R,E)-2-amino-N-(N-(4-(6-amino-9H-purin-9-yl)-3-fluoro-2-(fluoromethyl)but-2-en-1-yl)sulfamoyl)propenamide salt], the pIC50 in assay [4] was < 4.00. The IC50 entry in assay [4] (Dlt from S. epidermidis, PPi release, value (spread)) is “complete loss of the activity”. Also, in assay [2] (setting [6]), the “MIC of IPM” value came to 32 µg/mL. The MIC in assay [2] (setting [5]) was in the range of 16 to 64 µg/mL. For the same compound, the “Reduction in D-Ala Ester Residues” value in assay [3] is recorded as 2%.
Regarding `CCCCCCOc1ccc(C(=O)N[C@H](C)C(=O)c2cn(C[C@H]3O[C@@H](n4cnc5c(N)ncnc54)[C@H](O)[C@@H]3O)nn2)cc1` [Compound 53, N-((R)-1-(1-(((2R,3S,4R,5R)-5-(6-amino-9H-purin-9-yl)-3,4-dihydroxytetrahydrofuran-2-yl)methyl)-1H-1,2,3-triazol-4-yl)-1-oxopropan-2-yl)-4-(hexyloxy)benzamide salt], in assay [4], the pIC50 is 4.80. In addition, the “MIC of IPM” value in assay [2] (setting [6]) worked out at 16 µg/mL. The MIC in assay [2] (setting [5]) lay within 16 to 64 µg/mL. Besides, in assay [3], the “Reduction in D-Ala Ester Residues” value is recorded as 12.5 (14.0) %.
In the case of `C[C@@H](NC(=O)c1ccc(-c2ccccc2)cc1)C(=O)c1cn(C[C@H]2O[C@@H](n3cnc4c(N)ncnc43)[C@H](O)[C@@H]2O)nn1` [Compound 52, N-((R)-1-(1-(((2R,3S,4R,5R)-5-(6-amino-9H-purin-9-yl)-3,4-dihydroxytetrahydrofuran-2-yl)methyl)-1H-1,2,3-triazol-4-yl)-1-oxopropan-2-yl)-[1,1′-biphenyl]-4-carboxamide salt], the pIC50 in assay [4] was 4.91. In addition, the minimal inhibitory concentration (MIC) in assay [2] (setting [5]) worked out at 8 µg/mL. Also, in assay [3], the “Reduction in D-Ala Ester Residues” value was 16% and 16.0 (4.2) %.
`CCCCCCC(=O)N[C@H](C)C(=O)c1cn(C[C@H]2O[C@@H](n3cnc4c(N)ncnc43)[C@H](O)[C@@H]2O)nn1` [Compound 51, N-((R)-1-(1-(((2R,3S,4R,5R)-5-(6-amino-9H-purin-9-yl)-3,4-dihydroxytetrahydrofuran-2-yl)methyl)-1H-1,2,3-triazol-4-yl)-1-oxopropan-2-yl)heptanamide salt]: the pIC50 in assay [4] was 4.65. In addition, the “MIC of IPM” value in assay [2] (setting [6]) is 16 µg/mL. Moreover, in assay [2] (setting [5]), the MIC lay in the range of 16 to 64 µg/mL. In assay [3], the “Reduction in D-Ala Ester Residues” value is 22.2 (5.0) %.
